# In US5179107A, “Antiviral quinolinone compounds” (Schering Corporation, priority 1991, dated 1993):
# Several values for one entry are separate records, joined by “and”; a condition that tells them apart may be missing. Equal entries are not always repeated. Where two headings read alike, the source gives them in different places.
# Legend:
# HSV-2 (strain MS) = assay: HSV-β-GAL assay: transient expression of beta galactosidase in pON 245^ori- transfected HeLa cells infected with HSV-2; assay type: cell-based; settings: multiple numbers = additional tests; for IC50: Human alphaherpesvirus 2, HeLa, 24 h
# Method: (§1) HeLa and Vero cell cultures were maintained in Eagles Minimal Essential Medium which was supplemented with glutamine, penicillin, streptomycin and 10% fetal calf serum (10% EMEM). Stock cultures of HSV-2 (strain MS available from ATCC VR-540) were grown in and harvested from Vero cells. Viral stocks were titered in Vero cells according to established procedures.
# Plasmid pON 245^ori- contains the promoter of the HSV-1 thymidine kinase (tk) gene located immediately 5' of the E. coli lac Z gene. In this arrangement, the tk promoter controls transcription from the bacterial gene in transient expression assays. Additionally, an SV40 polyadenylation signal is present at the 3' end of the lac Z gene to allow for the efficient translation of the mRNA in eucaryotic cells. The expression of beta galactosidase in a transient assay using pON 245^ori- is dependent upon superinfection of the transfected cells with HSV. […] For example, see U.S. application Ser. No. 07/435,491 filed Sep. 5, 1989, the disclosure of which is incorporated herein by reference thereto.
# HeLa cells were seeded into 96 well microtiter plates and allowed to grow to 80% confluency (approximately 35000 cells/well). One half microgram of plasmid pON 245^ori- DNA was introduced into the cells of each well by the […] precipitation technique (Grahman and Van der Eb, 1973). Four to six hours later, the cells were rinsed with Hank's Balanced Salt Solution (HBSS), overlaid with 10% EMEM and incubated at 37° C. At 24 hrs post-transfection, cells were rinsed, overlaid with 10% EMEM again and re-incubated at 37° C. At 48 hrs. post-transfection, cells were rinsed and overlaid with either EMEM containing 2% fetal calf serum (2% EMEM), 2% EMEM containing HSV-2 (strain MS, Multiplicity of infection [moi]=5 pfu/cell) or 2% EMEM containing HSV-2 and the appropriate concentration of the compound to be tested. Twenty-four hrs later, the cells were harvested and assayed for beta galactosidase activity as described below.
# (§2) All determinations of beta galactosidase activity were performed in 96 well microtiter plates. The intracellular level of beta galactosidase activity in each well was determined from cell lysates of the monolayer cultures. […] The generation of fluorescent product was quantified on a Microfluor microfluorimeter (Dynatech) after addition of 0.1M glycine, pH 10.3 (Spaete and Mocarski, 1985). The inhibitory activity of a compound was plotted versus the concentration and an IC50 value (the concentration of compound required to reduce beta glactosidase expression by 50%) was obtained for each compound tested.
# The in-vitro anti-HSV activity of compounds of this invention is set forth in Table I. More than one number for a particular entry indicates the results for additional tests.
# [1] = Cytotoxicity, ^3 H-LEU assay (HeLa cell translation); assay type: cell-based; settings: human, hela cells, inhibition of cellular translational activity, overnight/24 hrs incubation, read-out: CYTOTOXICITY ^3 H-LEU ASSAY IC50
# Method: as §1
# (§3) HeLa cells were treated with inhibitory compound for 24 hrs, after which levels of translational activity were assayed.
# (§4) For assay of translational activity, HeLa cultures were grown to 80% confluency in 96 well microtiter plates, treated with appropriate concentrations of compound in 2% EMEM during an overnight incubation at 37° C., then rinsed with HBSS and overlaid with […] of 2% EMEM containing 8 uCi of tritiated leucine (^3 H-LEU, […], Amersham Corp., Arlington Heights Ill.). After a 1 hr incubation at 36.5° C., the cells were rinsed twice with phosphate buffered saline (PBS) and lysed in 400 ul/well of 1×PBS, 0.5% sodium dodecyl sulphate (SDS). After a 10 min incubation at 36.5° C., the contents of the well were transferred to a well in a Millititer HA microfiltration plate (Millipore Corp., Bedford, Mass.). The TCA insoluble proteins were precipitated onto the filter disc by a 10 min fixation with 5% TCA, followed by filtration under vacuum and three 10 minute rinses with 95% ethanol. The filters were dried at room temperature, cut from the milltitier plate and transferred to scintillation vials. TCA precipitable counts were assayed in 5 ml of Scintisol (Isolab, Akron, Ohio). The inhibitory activity of a compound was plotted versus the concentration and an IC50 value (that concentration of the compound required to decrease cellular translational activity by 50%) was derived for each compound.
# HSV [2] = settings: U.S. Pat. No. 4,757,088; cited from earlier work
# HSV-1 = settings: U.S. Pat. No. 4,757,088; cited from earlier work
# herpes virus = settings: U.S. Pat. No. 4,757,088; cited from earlier work
# HSV-2 = settings: U.S. Pat. No. 4,757,088; cited from earlier work
# [3] = CMV toxicity assay, ^3 H-LEU assay in HFF cells; assay type: cell-based; settings: human, read-out: CYTOTOXICITY ^3 H-LEU ASSAY IC50 (CMV toxicity assay)
# HSV-2, strain MS = assay: Prophylactic guinea pig model of HSV infection (genital lesions, Maximum Lesion scores); assay type: in vivo; settings: subcutaneous, 60 mg per kg, every eight hours for 10 days, from 24 hrs prior to infection
# Method: The in vivo assessment of anti-HSV efficacy was determined in the prophylactic guinea pig model of HSV infection described by Stansberry et al (1982). Dosing of guinea pigs was comprised of an initial treatment with test compound given 24 hrs prior to virus infection and subsequent administration of the compound every eight hours (T.I.D.) for a total of 10 days. Test compounds were administered subcutaneously in 0.5% buffered methyl cellulose at a dose of 60 mg per kg body weight of the animal. Animals were monitored daily for the developement of genital lesions and neurological symptomology, both of which were recorded and compared to the results obtained with parallel groups which received placebo or acyclovir treatment. Efficacy was evaluated for each compound by scoring the ability of the compound to ameliorate genital lesions produced by infection with HSV-2, strain MS, expressed as Maximum Lesion scores (MLS) on a scale of 1 (least lesions) to 4 (severe lesions).
# CMV (strain Towne) = assay: CMV-β-Gal assay: transient expression of beta galactosidase, plasmid pON249 ΔNH3, in human foreskin fibroblasts; assay type: cell-based; settings: multiple numbers = additional tests; for ANTI-CMV ACTIVITY CMV-β-Gal ASSAY IC50: CMV strain Towne, human foreskin fibroblasts; for IC50: Human betaherpesvirus 5, Fibroblast, read-out: ANTI-CMV ACTIVITY CMV-β-Gal ASSAY IC50, CMV strain Towne, human foreskin fibroblasts
# Method: as §2
# The in-vitro CMV activity of the compounds represented by Formulas 1.1 and 1.3 were determined using the following CMV assay.
# Human foreskin fibroblast (HHF) cell cultures were grown in 10% EMEM. CMV (strain Towne received from Stanford University) was grown and titered in HHF cells. Plasmids pON249 ΔNH3, containing CMV promoter genes, were used in the β-galactosidase transient expression assay as shown above.
# More than one number for a particular entry indicates the results of additional tests.
# HSV [4] = settings: added to lidocaine or lidocaine hydrochloride; U.S. Pat. No. 4,757,088; cited from earlier work
# HeLa cells = assay: Cytotoxicity, ^3 H-LEU assay (HeLa cell translation); assay type: cell-based; settings: inhibition of cellular translational activity, overnight/24 hrs incubation, 1440 min
# Method: as §1, §3, §4
# [5] = HSV-2 strain MS, moi 5 pfu/cell, HeLa cells, 24 hrs, read-out: ANTI-HSV ACTIVITY HSV-β-GAL ASSAY IC50
SMILES,IC50 (HSV-2 (strain MS); [5]) [µg/mL],CC50 at 24 h [1] [µg/mL],further results
Cn1c(=O)c(OC(=O)c2ccc(Br)o2)c(OC(=O)c2ccc(Br)o2)c2ccccc21 [Formula 1.7],10,> 50,
Cn1c(=O)c(OC(=O)c2cccs2)c(OC(=O)c2cccs2)c2ccccc21 [Formula 1.8],19,> 50,
"CCN(CC)CC(=O)Nc1c(C)cccc1C [lidocaine, 2-(diethylamino)-N-(2,6-dimethylphenyl)acetamide]",,,treatment of HSV oral and genital lesions in humans (HSV [2]): particularly effective; antiviral activity in cell culture against HSV-1 (HSV-1): antiviral agent; treatment of herpes virus infections of mammals (herpes virus): able to treat herpes virus infections of mammals; antiviral activity in cell culture against HSV-2 (HSV-2): antiviral agent
Cn1c(=O)c(OC(=O)c2ccccc2)c(OC(=O)c2ccccc2)c2ccccc21 [Formula 1.9],20,58,
Cn1c(=O)c(OC(=O)c2ccc[nH]2)c(OC(=O)c2ccc[nH]2)c2ccccc21 [Formula 1.5],,28,
O=c1c(O)c(O)c2ccccc2n1-c1ccccc1 [Formula 1.6],9,8,
Cn1cccc1C(=O)Oc1c(OC(=O)c2cccn2C)c2ccccc2n(C)c1=O [Formula 1.4],,> 100,
Cn1c(=O)c(O)c(O)c2ccccc21 [Formula 1.1],,21,"CC50 [3]: 36 µg/mL; IC50 (HSV-2 (strain MS); read-out: ANTI-HSV ACTIVITY HSV-β-GAL ASSAY IC50, HSV-2 strain MS, moi 5 pfu/cell, HeLa cells, 24 hrs): < 3 µg/mL; In-vivo anti-HSV activity (HSV-2, strain MS): inactive; ANTI-CMV ACTIVITY CMV-β-Gal ASSAY IC50 (CMV (strain Towne)): 1 µg/mL; IC50 (CMV (strain Towne)): 1.5 µg/mL"
CC(C)(CO)[C@@H](O)C(=O)NCCC(=O)O [pantothenic acid],,,effect of addition to lidocaine or lidocaine hydrochloride on their antiviral activity (HSV [4]): significantly enhances the antiviral activity
O=c1c(O)c(O)c2ccccc2n1Cc1ccccc1 [Formula 1.2],,32,
COc1c(OC)c2ccccc2n(C)c1=O [Formula 1.11],25,> 100,
CCCCCCCn1c(=O)c(O)c(O)c2ccccc21 [Formula 1.3],< 3,37,"CC50 [3]: 25 µg/mL; ANTI-HSV ACTIVITY HSV-β-GAL ASSAY IC50 (HSV-2 (strain MS); HSV-2 strain MS, moi 5 pfu/cell, HeLa cells, 24 hrs): 2 µg/mL and 3 µg/mL; ANTI-CMV ACTIVITY CMV-β-Gal ASSAY IC50 (CMV (strain Towne)): 9 µg/mL; IC50 (CMV (strain Towne)): 13 µg/mL; CYTOTOXICITY ^3 H-LEU ASSAY IC50 (HeLa cells): 30 µg/mL"
CCC(=O)Oc1c(OC(=O)CC)c2ccccc2n(C)c1=O [Formula 1.10],17,34,
CC(C)(CO)[C@@H](O)C(=O)NCCCO [dexpanthenol],,,effect of addition to lidocaine or lidocaine hydrochloride on their antiviral activity (HSV [4]): significantly enhances the antiviral activity
